# Biological target: canine TRPM8 (Canis lupus familiaris, UniProt Q1A7N1)
# Experiment: In Vitro Canine TRPM8 Functional Assay (Ca2+ fluorescence, icilin activation)
# Type: cell-based
# Settings: for IC50: HEK293 cells stably expressing canine TRPM8, icilin activation, eight-point dose-response, read-out: IC50; for inhibition at 0.2 µM / % Inh @ 0.2 (μM): compound at 0.2 μM, canine TRPM8, icilin activation; for inhibition at 0.2 µM: read-out: % Inh @ 0.2
# How it was run: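 HEK293 cells stably expressing canine TRPM8 were loaded with Calcium 3 dye (35 min at 37 °C, then 25 min at room temperature). Compound was added and Ca2+ fluorescence was read for 5 min before icilin at a concentration giving about 80% maximal response. EC50/IC50 came from eight-point dose-response curves, quadruplicate wells.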
# Sequence of canine TRPM8 (Q1A7N1 1-1104): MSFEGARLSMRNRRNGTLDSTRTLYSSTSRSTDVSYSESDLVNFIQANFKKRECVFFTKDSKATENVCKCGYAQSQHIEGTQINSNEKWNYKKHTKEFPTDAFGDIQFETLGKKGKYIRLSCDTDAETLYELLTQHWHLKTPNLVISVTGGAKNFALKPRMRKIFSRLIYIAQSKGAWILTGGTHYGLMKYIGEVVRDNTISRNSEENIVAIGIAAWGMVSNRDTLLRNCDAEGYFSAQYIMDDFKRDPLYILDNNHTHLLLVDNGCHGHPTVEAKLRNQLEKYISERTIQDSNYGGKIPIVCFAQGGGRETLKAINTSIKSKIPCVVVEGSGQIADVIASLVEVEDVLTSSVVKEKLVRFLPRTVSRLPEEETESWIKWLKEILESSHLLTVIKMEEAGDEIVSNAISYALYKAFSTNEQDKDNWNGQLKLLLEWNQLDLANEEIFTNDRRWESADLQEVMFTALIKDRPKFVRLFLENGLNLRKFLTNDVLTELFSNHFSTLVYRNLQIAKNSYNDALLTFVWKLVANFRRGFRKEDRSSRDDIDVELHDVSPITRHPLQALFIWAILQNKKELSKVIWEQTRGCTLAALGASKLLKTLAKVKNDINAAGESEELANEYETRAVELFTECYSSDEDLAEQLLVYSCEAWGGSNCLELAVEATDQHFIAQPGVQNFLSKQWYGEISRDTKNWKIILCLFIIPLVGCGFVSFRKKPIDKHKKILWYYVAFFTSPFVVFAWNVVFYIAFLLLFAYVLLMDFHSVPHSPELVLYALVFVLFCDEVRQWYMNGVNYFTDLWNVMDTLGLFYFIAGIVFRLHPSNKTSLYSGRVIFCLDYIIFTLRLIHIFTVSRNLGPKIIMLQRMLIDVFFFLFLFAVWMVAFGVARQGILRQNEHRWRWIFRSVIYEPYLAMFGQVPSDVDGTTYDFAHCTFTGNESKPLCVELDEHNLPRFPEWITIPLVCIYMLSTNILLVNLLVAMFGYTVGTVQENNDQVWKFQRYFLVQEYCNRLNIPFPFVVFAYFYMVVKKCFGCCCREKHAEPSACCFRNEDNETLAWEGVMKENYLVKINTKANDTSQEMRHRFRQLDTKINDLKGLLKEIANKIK
IC50,inhibition at 0.2 µM,SMILES,% Inh @ 0.2 (μM)
21.9 nM,102%,"Cc1c(N(Cc2ccc(F)c(C(F)(F)F)c2)S(=O)(=O)c2ccc(C(=O)NO)cc2)sc2ccccc12 [Compound 555, 4-([4-Fluoro-3-trifluoromethyl-benzyl)-(3-methyl-benzo[b]thiophen-2-yl)-sulfamoyl]-N-hydroxy-benzamide]",–
48.2 nM,99.3%,"CCCCN(c1cc2ccccc2s1)S(=O)(=O)c1ccc(C(=O)O)cc1 [Compound 556, N-(Benzo[b]thiophen-2-yl)-N-(butyl)-4-carboxy-benzenesulfonamide]",–
–,39.5%,"Cc1c(N(Cc2ccc(F)c(C(F)(F)F)c2)S(=O)(=O)c2ccc(C(=O)O)cc2)sc2cc(C(F)(F)F)ccc12 [Compound 557, N-(3-Methyl-6-trifluoromethyl-benzo[b]thiophen-2-yl)-N-(4-fluoro-3-trifluoromethyl-benzyl)-4-carboxy-benzenesulfonamide]",–
99.4 nM,80.9%,"CCCCN(c1sc2cc(C(F)(F)F)ccc2c1C)S(=O)(=O)c1ccc(C(=O)O)cc1 [Compound 558, N-(3-Methyl-6-trifluoromethyl-benzo[b]thiophen-2-yl)-N-(butyl)-4-carboxy-benzenesulfonamide]",–
65.7 nM,104%,"CCCCN(c1sc2ccccc2c1Br)S(=O)(=O)c1ccc(N(C)C)cc1 [Compound 560, N-(3-Bromo-benzo[b]thiophen-2-yl)-N-(butyl)-4-dimethylamino-benzenesulfonamide]",–
28.4 nM,103%,"CCCCN(c1sc2ccccc2c1Cl)S(=O)(=O)c1ccc(N(C)C)cc1 [Compound 561, N-(3-Chloro-benzo[b]thiophen-2-yl)-N-(butyl)-4-dimethylamino-benzenesulfonamide]",–
33.1 nM,103%,"CCCCN(c1sc2ccccc2c1Cl)S(=O)(=O)c1ccc(N2CCOCC2)cc1 [Compound 562, N-(3-Chloro-benzo[b]thiophen-2-yl)-N-(butyl)-4-morpholin-4-yl-benzenesulfonamide]",–
49.3 nM,94%,"COC(=O)c1ccc(S(=O)(=O)N(Cc2ccc(F)c(C(F)(F)F)c2)c2sc3ccccc3c2C(C)C)cc1 [Compound 563, N-(4-Fluoro-3-trifluoromethyl-benzyl)-N-(3-isopropyl-benzo[b]thiophen-2-yl)-4-carbomethoxy-benzenesulfonamide]",–
–,57.7%,"COC(=O)c1ccc(S(=O)(=O)N(CCC2CC2)c2sc3ccccc3c2C(C)C)cc1 [Compound 564, N-(2-Cyclopropyl-ethyl)-N-(3-isopropyl-benzo[b]thiophen-2-yl)-4-carbomethoxy-benzenesulfonamide]",–
117 nM,74.4%,"COC(=O)c1ccc(S(=O)(=O)N(CCCCC(F)(F)F)c2sc3ccccc3c2C(C)C)cc1 [Compound 565, N-(3-Isopropyl-benzo[b]thiophen-2-yl)-N-(5,5,5-trifluoro-pentyl)-4-carbomethoxy-benzenesulfonamide]",–
1.8 nM,104%,"CC(C)c1c(N(Cc2ccc(F)c(C(F)(F)F)c2)S(=O)(=O)c2ccc(C(=O)O)cc2)sc2ccccc12 [Compound 566, N-(4-Fluoro-3-trifluoromethyl-benzyl)-N-(3-isopropyl-benzo[b]thiophen-2-yl)-4-carboxy-benzenesulfonamide]",–
10.3 nM,104%,"CC(C)c1c(N(CCC2CC2)S(=O)(=O)c2ccc(C(=O)O)cc2)sc2ccccc12 [Compound 567, N-(2-Cyclopropyl-ethyl)-N-(3-isopropyl-benzo[b]thiophen-2-yl)-4-carboxy-benzenesulfonamide]",–
2.4 nM,104%,"CC(C)c1c(N(CCCCC(F)(F)F)S(=O)(=O)c2ccc(C(=O)O)cc2)sc2ccccc12 [Compound 568, N-(5,5,5-Trifluoro-pentyl)-N-(3-isopropyl-benzo[b]thiophen-2-yl)-4-carboxy-benzenesulfonamide]",–
35 nM,88%,"O=S(=O)(c1ccc(-c2nnn[nH]2)cc1)N(CCC1CC1)c1cc2ccccc2s1 [Compound 569, N-(Benzo[b]thiophen-2-yl)-N-(2-cyclopropyl-ethyl)-4-(1H-tetrazol-5-yl)-benzenesulfonamide]",–
6.6 nM,101%,"Cc1c(N(CCC2CC2)S(=O)(=O)c2ccc(-c3nnn[nH]3)cc2)sc2ccccc12 [Compound 570, N-(3-Methyl-benzo[b]thiophen-2-yl)-N-(cyclopropyl-ethyl)-4-(1H-tetrazol-5-yl)-benzenesulfonamide]",–
–,14%,"O=S(=O)(c1ccc(-c2nnn[nH]2)cc1)N(CCC(F)(F)F)c1cc2ccccc2s1 [Compound 571, N-(Benzo[b]thiophen-2-yl)-N-(3,3,3-trifluoro-propyl)-4-(1H-tetrazol-5-yl)-benzenesulfonamide]",–
16.6 nM,101%,"Cc1c(N(CCC(F)(F)F)S(=O)(=O)c2ccc(-c3nnn[nH]3)cc2)sc2ccccc12 [Compound 572, N-(3-Methyl-benzo[b]thiophen-2-yl)-N-(3,3,3-trifluoro-propyl)-4-(1H-tetrazol-5-yl)-benzenesulfonamide]",–
–,28%,"N#Cc1cccc(S(=O)(=O)N(CCC(F)(F)F)c2cc3ccccc3s2)c1 [Compound 573, N-(Benzo[b]thiophen-2-yl)-N-(3,3,3-trifluoro-propyl)-3-cyano-benzenesulfonamide]",–
–,16%,"N#Cc1cccc(S(=O)(=O)N(CCCC(F)(F)F)c2cc3ccccc3s2)c1 [Compound 574, N-(Benzo[b]thiophen-2-yl)-N-(4,4,4-trifluoro-butyl)-3-cyano-benzenesulfonamide]",–
–,15%,"N#Cc1cccc(S(=O)(=O)N(CCC2CC2)c2cc3ccccc3s2)c1 [Compound 575, N-(Benzo[b]thiophen-2-yl)-N-(2-cyclopropyl-ethyl)-3-cyano-benzenesulfonamide]",–
19.1 nM,100%,"O=S(=O)(c1cccc(-c2nnn[nH]2)c1)N(Cc1ccc(F)c(C(F)(F)F)c1)c1sc2ccccc2c1Br [Compound 576, N-(3-Bromo-benzo[b]thiophen-2-yl)-N-(4-fluoro-3-trifluoromethyl-benzyl)-3-(1H-tetrazol-5-yl)-benzenesulfonamide]",–
7.8 nM,101%,"O=S1(=O)C(N(CCC2CC2)S(=O)(=O)c2ccccc2)=C(Br)c2ccccc21 [Compound 577, N-(3-Bromo-1,1-dioxo-1H-benzo[b]thiophen-2-yl)-N-(2-cyclopropylethyl)-benzenesulfonamide]",–
26.7 nM,91%,"O=S(=O)(c1cccc(-c2nnn[nH]2)c1)N(Cc1ccc(F)c(C(F)(F)F)c1)c1sc2ccccc2c1Cl [Compound 578, N-(3-Chloro-benzo[b]thiophen-2-yl)-N-(4-fluoro-3-trifluoromethyl-benzyl)-3-(1H-tetrazol-5-yl)-benzenesulfonamide]",–
–,102%,"O=S(=O)(c1ccc(-c2nnn[nH]2)cc1)N(CCCCC(F)(F)F)c1sc2ccccc2c1Br [Compound 579, N-(3-Bromo-benzo[b]thiophen-2-yl)-N-(5,5,5-trifluoro-pentyl)-4-(1H-tetrazol-5-yl)-benzenesulfonamide]",–
22.1 nM,101%,"O=S(=O)(c1ccc(-c2nnn[nH]2)cc1)N(CCCCC(F)(F)F)c1sc2ccccc2c1Cl [Compound 580, N-(3-Chloro-benzo[b]thiophen-2-yl)-N-(5,5,5-trifluoro-pentyl)-4-(1H-tetrazol-5-yl)-benzenesulfonamide]",–
–,100%,"O=c1[nH]c(-c2ccc(S(=O)(=O)N(CCCCC(F)(F)F)c3sc4ccccc4c3Br)cc2)no1 [Compound 583, N-(3-Bromo-benzo[b]thiophen-2-yl)-N-(5,5,5-trifluoro-pentyl)-4-(5-oxo-4,5-dihydro-[1,2,4]oxadiazol-3-yl)-benzenesulfonamide]",–
15.9 nM,100%,"O=c1[nH]c(-c2ccc(S(=O)(=O)N(CCCCC(F)(F)F)c3sc4ccccc4c3Cl)cc2)no1 [Compound 584, N-(3-Chloro-benzo[b]thiophen-2-yl)-N-(5,5,5-trifluoro-pentyl)-4-(5-oxo-4,5-dihydro-[1,2,4]oxadiazol-3-yl)-benzenesulfonamide]",–
6.4 nM,101%,"Nc1ccc(S(=O)(=O)N(CCC(F)(F)F)c2sc3ccccc3c2Cl)cc1 [Compound 585, 4-Amino-N-(3-chloro-benzo[b]thiophen-2-yl)-N-(3,3,3-trifluoro-propyl)-benzenesulfonamide]",–
34.6 nM,100%,"Nc1ccc(S(=O)(=O)N(CCC(F)(F)F)c2cc3ccccc3s2)cc1Cl [Compound 586, 4-Amino-N-(benzo[b]thiophen-2-yl)-3-chloro-N-(3,3,3-trifluoro-propyl)-benzenesulfonamide]",–

SMILES,IC50,inhibition at 0.2 µM,% Inh @ 0.2 (μM)
"CCCCN(c1sc2ccccc2c1Br)S(=O)(=O)c1ccc(N2CCOCC2)cc1 [Compound 559, N-(3-Bromo-benzo[b]thiophen-2-yl)-N-(butyl)-4-morpholine-benzenesulfonamide]",3.2 nM,–,104.59%
"O=S1NC(c2ccc(S(=O)(=O)N(CCCCC(F)(F)F)c3sc4ccccc4c3Br)cc2)=NO1 (centres unmarked) [Compound 581, N-(3-Bromo-benzo[b]thiophen-2-yl)-N-(5,5,5-trifluoro-pentyl)-4-(3H-[1,2,3,5]oxathiadiazole-2-oxide)-benzenesulfonamide]",25.1 nM,–,100%
"O=S1NC(c2ccc(S(=O)(=O)N(CCCCC(F)(F)F)c3sc4ccccc4c3Cl)cc2)=NO1 (centres unmarked) [Compound 582, N-(3-Chloro-benzo[b]thiophen-2-yl)-N-(5,5,5-trifluoro-pentyl)-4-(3H-[1,2,3,5]oxathiadiazole-2-oxide)-benzenesulfonamide]",50.3 nM,–,96%
